Counter-ions that a name gives are not always drawn.
Assays:
5-HT2A [1] = molecular target: T1, 5-HT2A (Rattus norvegicus, UniProt P14842); assay: 5-HT2 Receptor Binding Assay ([125I]DOI competition); conditions: [125I]DOI binding, post mortem rat or human cerebral cortex homogenates
Method: 5-HT2 Receptor Binding Assay
Aliquots of post mortem rat or human cerebral cortex homogenates (400 μL) dispersed in 50 mM Tris HCl buffer (pH 7.4) are incubated with [^125I]DOI (80 pM final) in the absence or presence of methiothepin (10 μM final) to define total and non-specific binding, respectively, in a total volume of 0.5 mL. The assay mixture is incubated for 1 hour at 23° C. in polypropylene tubes and the assays terminated by rapid vacuum filtration over Whatman GF/13 glass fiber filters previously soaked in 0.3% polyethyleneimine using ice-cold buffer. Test compounds (at different concentrations) are substituted for methiothepin. Filter-bound radioactivity is determined by scintillation spectrometry on a beta counter. The data are analyzed using a non-linear, iterative curve-fitting computer program [Trends Pharmacol. Sci., 16, 413 (1995)] to determine the compound affinity parameter. The concentration of the compound needed to inhibit the [^125I]DOI binding by 50% of the maximum is termed the […].

5-HT2A [2] = molecular target: T1, 5-HT2A; assay: 5-HT2 Functional Assay: [Ca2+]i Mobilization (FLIPR); type: cell-based; set-up: endogenous in cells; host or cells: A7r5 rat vascular smooth muscle cells; conditions: for EC50: [Ca2+]i mobilization, A7r5 rat vascular smooth muscle cells; for Emax: percentage of a maximum 5-HT-induced response, A7r5 cells
Method: 5-HT2 Functional Assay: [Ca^2+]i Mobilization
The receptor-mediated mobilization on intracellular calcium ([Ca^2+]i) was studied using the Fluorescence Imaging Plate Reader (FLIPR) instrument. Rat vascular smooth muscle cells, A7r5, were grown in a normal media of DMEM/10% FBS and 10 μg/mL gentamycin. Confluent cell monolayers were trypsinized, pelleted, and re-suspended in normal media. Cells were seeded in a 50 μL volume at a density of 20,000 cells/well in a black wall, 96-well tissue culture plate and grown for 2 days.
On the day of the experiment, one vial of FLIPR Calcium Assay Kit dye was re-suspended in 50 mL of a FLIPR buffer consisting of Hank's Balanced Salt Solution (HBSS), 20 mM HEPES, and 2.5 mM probenecid, pH 7.4. Cells were loaded with the calcium-sensitive dye by addition of an equal volume ([…]) to each well of the 96-well plate and incubated with dye for 1 h at 23° C.
Typically, test compounds were stored at 25 μM in 50% DMSO/50% Ethanol solvent. Compounds were diluted 1:50 in 20% DMSO/20% Ethanol. For “hit” screening, compounds were further diluted 1:10 in FLIPR buffer and tested at a final concentration of 10 μM. For dose-response experiments, compounds were diluted 1:50 in FLIPR buffer and serially diluted 1:10 to give a 5- or 8-point dose-response curve.
The compound plate and cell plate were placed in the FLIPR instrument. At the beginning of an experimental run, a signal test was performed to check the basal fluorescence signal from the dye-loaded cells and the uniformity of the signal across the plate. The basal fluorescence was adjusted between 8000-12000 counts by modifying the exposure time, the camera F-stop, or the laser power. Instrument settings for a typical assay were the following: laser power 0.3-0.6 W, camera F-stop F/2, and exposure time 0.4 sec. An aliquot (25 μL) of the test compound was added to the existing 100 μL dye-loaded cells at a dispensing speed of 50 μL/sec. Fluorescence data were collected in real-time at 1.0 sec intervals for the first 60 secs and at 6.0 sec intervals for an additional 120 secs. Responses were measured as peak fluorescence intensity minus basal and where appropriate were expressed as a percentage of a maximum 5-HT-induced response [Emax %]. When the compounds were tested as antagonists against 10 μM 5-HT, they were incubated with the cells for 15 minutes prior to the addition of 5-HT.

T1 sequence (P14842 whole entry): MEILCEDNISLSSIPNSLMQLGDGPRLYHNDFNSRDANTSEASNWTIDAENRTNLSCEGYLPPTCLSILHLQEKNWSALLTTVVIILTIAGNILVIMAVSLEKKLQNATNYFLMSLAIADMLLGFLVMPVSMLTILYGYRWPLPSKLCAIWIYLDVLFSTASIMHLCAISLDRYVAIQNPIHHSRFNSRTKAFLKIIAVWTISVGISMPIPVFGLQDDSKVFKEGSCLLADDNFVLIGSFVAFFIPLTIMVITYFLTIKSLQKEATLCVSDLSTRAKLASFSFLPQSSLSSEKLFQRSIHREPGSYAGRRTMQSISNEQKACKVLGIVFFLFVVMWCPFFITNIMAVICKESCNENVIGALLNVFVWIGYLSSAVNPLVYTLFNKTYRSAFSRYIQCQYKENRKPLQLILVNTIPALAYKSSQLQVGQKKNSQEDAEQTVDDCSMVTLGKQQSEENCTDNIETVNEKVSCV

Structure (SMILES): CCOC(=O)c1ccc2cnn(C[C@H](C)N)c2c1 (as salt: fumaric acid salt) [Example 1, 1-((S)-2-Aminopropyl)-1H-indazole-6-carboxylic acid ethyl ester]
- melting point: 150 to 152 °C

Structure (SMILES): CCOC(=O)c1ccc2cnn(C[C@H](C)N)c2c1 [Example 1, 1-((S)-2-Aminopropyl)-1H-indazole-6-carboxylic acid ethyl ester]
- IC50 (5-HT2A [1]): 10 nM
- EC50 (5-HT2A [2]): 837 nM
- Emax (5-HT2A [2]): 86%

Structure (SMILES): C[C@H](N)Cn1ncc2ccc(C(N)=O)cc21 [Example 2, 1-((S)-2-Aminopropyl)-1H-indazole-6-carboxylic acid amide]
- melting point: 170 to 172 °C
- IC50 (5-HT2A [1]): 5.9 nM
- EC50 (5-HT2A [2]): 465 nM
- Emax (5-HT2A [2]): 90%
